According to patent publication US7932287B2, “Therapeutic compositions and uses” (ChemGenes Corporation, priority 2004, dated 2011):
Read-outs that look alike come from different tables or passages of the source.

Legend:
[1] = test system: child diagnosed with Late Infantile Neuronal Ceroid Lipofuscinosis (LINCL); assay: Blood work (standard clinical blood tests) before and after TML therapy; assay type: in vivo, human; set-up: Glutamine / Taurine / Carnitine, Total / Carnitine, Esthers / Alanine / Carbon Dioxide / BUN / Hgb / HCT / RDW / ABS Lymphocytes / Glycine: unit not given here
Procedure: (§1) Child had been taking the supplements/vitamins listed in Appendix B for about three years before the start of TML therapy. In addition, they had been taking clonazepam (5-(2-chlorophenyl)-1,3-dihydro7-nitro-2H-1,4-benzodiazepin-2-one) which is sold under the trade name Klonopin by F. Hoffmann-La Roche Ltd. (Basel, Switzerland) for control of constant Myoclonic seizures for about the same time according to the following daily dosage: (a) at waking: ½ of one 0.5 mg tablet, (b) Every four hours after waking, ¼ of one 0.5 mg tablet, (c) At bedtime: ½ of one 0.5 mg tablet. They also took one (1) 25 mg capsule of nitrofurantoin macrocrystals (sold under the name Macrodantin by Procter & Gamble Pharmaceuticals, Cincinnati Ohio) once per day.
(§2) “Baseline” blood work was done after an overnight fast on the morning of Nov. 19, 2003. Child received their usual supplements/vitamins, clonazepam, and macrodantin. TML, as synthesized in Example 1 was given to the patient (5 mg of TML per day for a […], ending Dec. 28, 2003). Between Dec. 28, 2003 and Jan. 24, 2004 we gave an alternating daily dose of 5 mg/day and 10 mg/day. On Jan. 24, 2004 and till the “new” blood work was done on Jan. 29, 2004, the patient received 10 mg/day by usually taking 5 mg of TML with breakfast and 5 mg of TML with dinner. They received 5 mg per dose during the duration of the experiment. In other words, they received TML once per day on days that they received 5 mg, and TML twice per day on days that they received 10 mg of TML. The TML was administered in powder form intermixed with their food.
The child's bloodwork results are in table 1, below and the empirical nature of the child's improvement is evidenced by the follow up blood results. These blood tests were standard clinical tests carried out at Children's Hospital of Pittsburgh.

[2] = test system: child diagnosed with Late Infantile Neuronal Ceroid Lipofuscinosis (LINCL); assay: Physical condition of the patient after 9 weeks of TML therapy (parents' and physicians' observations); assay type: in vivo, human
Procedure: as §1, §2
Child's General Physical Condition Before the Start of TML Therapy (Based on Parents' Observations):
(The Physical Appearance of the Patient After the Stated 9 Weeks of TML Therapy.)

[3] = test system: child diagnosed with Late Infantile Neuronal Ceroid Lipofuscinosis (LINCL); assay: as above; assay type: in vivo, human; details: TML 5 mg-30 mg per day after Jan. 29, 2004, through January 2005
[4] = test system: L-carnitine biosynthesis; details: rats; increased amount of the intermediate in the bloodstream; cited from earlier work
[5] = test system: L-carnitine biosynthesis; details: human infants & adults; increased amount of the intermediate in the bloodstream; cited from earlier work
[6] = test system: child who was afflicted with LINCL; assay: Exogenous L-carnitine given to the LINCL child for over three years; assay type: in vivo, human
Procedure: as §1
In summary, L-carnitine plays a key and critical role in enhancing fat metabolism. Reports attest to the fact that L-carnitine works by transporting fatty acids to be burned for fuel, increasing both energy supply and lean muscle mass. […] This contrasts with the apparent need in Late Infantile Neuronal Ceroid Lipofuscinosis (LINCL-one form of Batten Disease) of the correct operation of the endogenous production of L-carnitine. […] This also was not observed by the parents of the child who was afflicted with LINCL (discussed later).

[7] = test system: dogs with Batten Disease (Juvenile Neuronal Ceroid Lipofuscinosis); details: cited from earlier work
[8] = Jan. 29, 2004, after TML, baseline high
[9] = Jan. 29, 2004, after TML, baseline normal
[10] = exogenous carnitine, dogs with Juvenile Neuronal Ceroid Lipofuscinosis

## C[N+](C)(C)CCCCC(N)C(=O)[O-] [TML, N-6-trimethyl-L-lysine]
[1]; Jan. 29, 2004, after 9 weeks of TML 5-10 mg/day in food, overnight fast, baseline Nov. 19, 2003: 14.4 (high)
  Hgb: 14
[1]; Jan. 29, 2004, after 9 weeks of TML 5-10 mg/day, baseline 2 (low), 6 is norm
  BUN: 5
[1]; Jan. 29, 2004, after 9 weeks of TML 5-10 mg/day, baseline 2.2 (low)
  ABS Lymphocytes: 2.5
[1]; Jan. 29, 2004, after 9 weeks of TML 5-10 mg/day, baseline 7 (normal)
  Carnitine, Esthers: 10
[1]; Jan. 29, 2004, after 9 weeks of TML 5-10 mg/day, baseline 11.5
  RDW: 12.3
[1]; Jan. 29, 2004, after 9 weeks of TML 5-10 mg/day, baseline 24 (high)
  Taurine: 19
[1]; Jan. 29, 2004, after 9 weeks of TML 5-10 mg/day, baseline 32 (high)
  Carbon Dioxide: 22
[1]; Jan. 29, 2004, after 9 weeks of TML 5-10 mg/day, baseline 40 (normal)
  Carnitine, Total: 43
[1]; Jan. 29, 2004, after 9 weeks of TML 5-10 mg/day, baseline 42 (high)
  HCT: 40.3
[1]; Jan. 29, 2004, after 9 weeks of TML 5-10 mg/day, baseline 50 (high)
  Glycine: 25
[1]; Jan. 29, 2004, after 9 weeks of TML 5-10 mg/day, baseline 60 (high), 40 is norm
  AST: 50
[1]; Jan. 29, 2004, after 9 weeks of TML 5-10 mg/day, baseline 87 (high)
  Alanine: 47
[1]; Jan. 29, 2004, after 9 weeks of TML 5-10 mg/day, baseline 99 (high)
  Glutamine: 70
[1]; Jan. 29, 2004, after 9 weeks of TML 5-10 mg/day, baseline 586 (high), 369 norm
  Platelets: 461
[1]; [8]
  Alanine, Clinical Range: normal
  Carbon Dioxide, Clinical Range: normal
  Glutamine, Clinical Range: normal
  Glycine, Clinical Range: normal
  HCT, Clinical Range: normal
  Hgb, Clinical Range: normal
  RDW, Clinical Range: normal
  Taurine, Clinical Range: normal
[1]; Jan. 29, 2004, after TML, baseline high, 40 is norm
  AST, Clinical Range: high
[1]; Jan. 29, 2004, after TML, baseline high, 369 norm
  Platelets, Clinical Range: high
[1]; Jan. 29, 2004, after TML, baseline low
  ABS Lymphocytes, Clinical Range: normal
[1]; Jan. 29, 2004, after TML, baseline low, 6 is norm
  BUN, Clinical Range: (low)
[1]; [9]
  Carnitine, Esthers, Clinical Range: normal
  Carnitine, Total, Clinical Range: normal
[1]; Jan. 29, 2004, after TML, baseline: alanine elevated, glutamine increased
  Elevation of serum amino acids (examining physician's comment): No significant elevation of serum Amino Acids
[2]; after 9 weeks of TML therapy
  Eye movement and pupillary response: more eye movement and even the emergence of “purposeful” eye movement and a faster pupillary response
  Hypertonicity of legs: still “hypertonic”
  Swallowing: very much improved, almost normal
[2]; after 9 weeks of TML therapy, also observed by a physiatrist and neurologist
  Hypertonicity of arms, hands and fingers: notable reduction
[2]; after 9 weeks of TML therapy, before: chronically cyanotic
  Cyanosis symptoms in the hands and feet: virtually no cyanosis
[2]; after 9 weeks of TML therapy, before: two or three days without bowel movement, enema needed
  Bowel movements: moving their bowels on their own one to three times a day
[2]; after approximately the first two weeks of TML, before: sleep interrupted 1 to 3 times per night
  Insomnia / sleeping through the night: The insomnia was gone
[2]; after the administration of TML
  Hyperammonemic condition (blue hands and feet): amelioration of the hyperammonemic condition
[2]; exogenous TML to the LINCL child
  Metabolic and outward, observable changes to their condition: yielded significant metabolic and outward, observable changes to their condition
[2]; neurologist's office visit Jan. 30, 2004
  Full body jerk (Myoclonus) elicited by touch: no longer elicited a full body jerk
[2]; neurologist's office visit Jan. 30, 2004, clonazepam continued
  Myoclonic seizures: markedly reduced in severity and in number
[3]
  Condition on continued TML: remained stable
[4]
  Increase of the production of L-carnitine: 100 fold
[5]
  Increase of the production of L-carnitine: 3 fold

## C[N+](C)(C)CCCC(=O)[O-] [g-butyrobetaine, 4-N-trimethylaminobutyrate, reference compound]
[4]
  Increase of the production of L-carnitine: 100 fold
[5]
  Increase of the production of L-carnitine: 3 fold

## C[N+](C)(C)C[C@H](O)CC(=O)[O-] [L-carnitine, L-b-hydroxy-g-n-trimethylaminobutyric acid]
[6]
  Metabolic changes or marked outward observations of their condition: without significant metabolic changes or marked outward observations of their condition
[7]; exogenous L-Carnitine to dogs with Batten Disease
  Need for endogenous production of L-carnitine: not ameliorated
[7]; [10]
  Function of the dogs: more functional
  Life span versus untreated dogs (lived longer): 10%
